# Laboratory results: patent publication EP4471028A1, “HYDRAZINO GROUP-CONTAINING COMPOUND” (priority 2022, dated 2023)
# Assay: In vitro liver microsomal metabolic stability
# Type: in vitro ADME
# Details: human, liver microsomes, pH 7.4; 0.5 mg/mL microsomes, NADPH, 37 °C, 60 min; read-out: Human liver microsome Residual rate at 60 min%
# Procedure: Liver microsome incubation samples were prepared by mixing a PBS buffer (pH 7.4), a liver microsome solution (0.5 mg/mL; species: human, monkey, dog, rat, and mouse), a test compound, and an NADPH + MgCl2 solution and incubated at 37 °C and 300 rpm for 1 h. Zero-hour samples were prepared by mixing a PBS buffer (pH 7.4), a liver microsome solution (0.5 mg/mL), and a test compound. An acetonitrile solution containing an internal standard was added to the samples, and supernatants were prepared by protein precipitation, diluted, and then assayed by LC/MS/MS.
row,Structure (SMILES),remaining at 1 h
1,CC(C)n1c(=O)n(N)c2cnc3cc(F)c(-c4ccc(OCCCN5CCCCC5)nc4)cc3c21 [Example 2],64.4%
2,CC(C)n1c(=O)n(N)c2cnc3cc(F)c(-c4ccc(OCCCN5CCCC5)nc4)cc3c21 [Example 3],86.3%
3,COc1cc2ncc3c(c2cc1-c1ccc(OCCCN2CCCC2)nc1)n(C1CC1)c(=O)n3N [Example 11],58.6%
4,COC1CCC(n2c(=O)n(N)c3cnc4cc(F)c(-c5ccc(OCCCN(C)C)nc5)cc4c32)C1 (centres unmarked) [Example 14],66.2%
5,COc1cc2ncc3c(c2cc1-c1ccc(OCCCN2CCCCC2)nc1)n(C(C)C)c(=O)n3N [Example 16],72.4%
6,COc1cc2ncc3c(c2cc1-c1ccc(OCCCN2CCCC2)nc1)n(C(C)C)c(=O)n3N [Example 17],85.2%
7,COC1CC(n2c(=O)n(N)c3cnc4cc(F)c(-c5ccc(OCCCN(C)C)nc5)cc4c32)C1 (centres unmarked) [Example 21],79.6%
8,CC(C)n1c(=O)n(N)c2cnc3cc(F)c(-c4ccc(OCC5CC(N6CCCC6)C5)nc4)cc3c21 (centres unmarked) [Example 22],73.3%
9,CC(C)n1c(=O)n(N)c2cnc3cc(F)c(-c4ccc(OCCCN5CC(CF)C5)nc4)cc3c21 [Example 28],65.6%
10,CC(C)n1c(=O)n(N)c2cnc3cc(F)c(-c4ccc(OCCCN5CC6(CCC6)C5)nc4)cc3c21 [Example 29],64.9%
11,CC(C)n1c(=O)n(N)c2nnc3cc(F)c(-c4ccc(OCCCN5CCCCC5)nc4)cc3c21 [Example 32],95.8%

# Further lines, results first:
row,remaining at 1 h,Structure (SMILES)
1,90.6%,Nn1c(=O)n(C2CCOCC2)c2c3cc(-c4ccc(OCCCN5CCCC5)nc4)c(F)cc3ncc21 [Example 5]
2,56%,COC1CCC(n2c(=O)n(N)c3cnc4cc(F)c(-c5ccc(OCCCN6CCCC6)nc5)cc4c32)C1 (centres unmarked) [Example 13]
3,58.4%,Nn1c(=O)n(C2CCOCC2)c2c3cc(-c4ccc(OCCCN5CCCCC5)nc4)c(F)cc3ncc21 [Example 15]
4,77%,Nn1c(=O)n(C2CC2)c2c3cc(-c4ccc(OCCCN5CCCC5)nc4)c(F)cc3ncc21 [Example 19]

# Assay: In vivo pharmacokinetics (Table 4)
# Details: plasma, po; IG 10mg/kg versus IV 1mg/kg; read-out: Absolute F
row,Structure (SMILES),bioavailability
1,CC(C)n1c(=O)n(N)c2cnc3cc(F)c(-c4ccc(OCCCN5CCCCC5)nc4)cc3c21 [Example 2],79.7%
2,CC(C)n1c(=O)n(N)c2cnc3cc(F)c(-c4ccc(OCCCN5CCCC5)nc4)cc3c21 [Example 3],95.5%
3,CC(C)n1c(=O)n(N)c2cnc3cc(F)c(-c4ccc(OCCCN5C6CCC5CC6)nc4)cc3c21 [Example 27],115%
4,CC(C)n1c(=O)n(N)c2cnc3cc(F)c(-c4ccc(OCCCN5CC(CF)C5)nc4)cc3c21 [Example 28],77.4%
5,CC(C)n1c(=O)n(N)c2cnc3cc(F)c(-c4ccc(OCCCN5CC6(CCC6)C5)nc4)cc3c21 [Example 29],85.9%

# Results, then the compound that gave them:
row,bioavailability,Structure (SMILES)
1,75.9%,Nn1c(=O)n(C2CC2)c2c3cc(-c4ccc(OCCCN5CCCCC5)nc4)c(F)cc3ncc21 [Example 18]
2,88.3%,Nn1c(=O)n(C2CC2)c2c3cc(-c4ccc(OCCCN5CCCC5)nc4)c(F)cc3ncc21 [Example 19]

# Same assay, conditions: plasma; IV, 1mg/kg; read-out: CLz (converted)
row,Structure (SMILES),clearance
1,CC(C)n1c(=O)n(N)c2cnc3cc(F)c(-c4ccc(OCCCN5CCCCC5)nc4)cc3c21 [Example 2],31 mL/min/kg
2,CC(C)n1c(=O)n(N)c2cnc3cc(F)c(-c4ccc(OCCCN5CCCC5)nc4)cc3c21 [Example 3],36.3 mL/min/kg
3,CC(C)n1c(=O)n(N)c2cnc3cc(F)c(-c4ccc(OCCCN5C6CCC5CC6)nc4)cc3c21 [Example 27],59.7 mL/min/kg
4,CC(C)n1c(=O)n(N)c2cnc3cc(F)c(-c4ccc(OCCCN5CC(CF)C5)nc4)cc3c21 [Example 28],7.45 mL/min/kg
5,CC(C)n1c(=O)n(N)c2cnc3cc(F)c(-c4ccc(OCCCN5CC6(CCC6)C5)nc4)cc3c21 [Example 29],5.27 mL/min/kg

# More lines, now with the values ahead:
row,clearance,Structure (SMILES)
1,26.7 mL/min/kg,Nn1c(=O)n(C2CC2)c2c3cc(-c4ccc(OCCCN5CCCCC5)nc4)c(F)cc3ncc21 [Example 18]
2,35.2 mL/min/kg,Nn1c(=O)n(C2CC2)c2c3cc(-c4ccc(OCCCN5CCCC5)nc4)c(F)cc3ncc21 [Example 19]
